We go through 36 molecules from patent publication US20120058953A1, “COMPOSITIONS AND METHODS FOR ENHANCING APOPTOSIS” (Genentech, Inc., priority 2003, published 2012).

Where two headings read alike, the source gives them in different places. Non-standard residues stand in square brackets, D forms with d. Residues, ends and D or L forms follow the SMILES beside them. No end group written: not given here. Phe(4-SO3H) = N[C@@H](Cc1ccc(S(=O)(=O)O)cc1)C(=O)O; Phe(4-I) = N[C@@H](Cc1ccc(I)cc1)C(=O)O; Phe(ol) = N[C@H](CO)Cc1ccccc1 Some results are limits rather than exact numbers.

Assay [1] has as its target T1, ML-IAP-BIR (Homo sapiens, UniProt Q96CA5).
T1 construct: made in house; host or cells: Escherichia coli BL21 (DE3)
T1 sequence (Q96CA5 63-179): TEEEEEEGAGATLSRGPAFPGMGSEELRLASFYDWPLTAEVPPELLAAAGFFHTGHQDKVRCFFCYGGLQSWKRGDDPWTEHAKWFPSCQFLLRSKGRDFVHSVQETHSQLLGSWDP
Kind of assay: fluorescence polarization competition assay, ML-IAP-BIR. It is filed as binding. Here is the method:
(§1) The apparent Kd values can be determined from the EC50 values.
(§2) The vectors pET15b-XIAPBIR2C202AC218G, pET15b-XIAPBIR3, and pET15b-MLIAPBIR were introduced into Escherichia coli strain BL21 (DE3). Overnight cultures were diluted 1:100 and grown at 30° C. in LB media with […] to an A600 of 0.5-0.7 with vigorous shaking. Isopropyl b-D-thiogalactoside (IPTG) was added to a final concentration of 1 mM and cultures were grown for 4 hours at 30° C. One litre of frozen cell pellet was resuspended in 100 ml Buffer A (50 mM Tris [pH 8.0], 300 mM NaCl, 5 mM b-mercaptoethanol, 0.5 mM PMSF, 2 mM benzamidine) with 5 mM imidazole and placed on ice for 30 minutes. Cells were lysed by homogenizing followed by repeated passes through a microfluidizer. Lysate was cleared by centrifugation at 15,000 rpm for 30 minutes. The supernatant was loaded onto a Ni-agarose column (Qiagen), washed with 10 column volumes Buffer A with 10 mM imidazole, and eluted with 10 column volumes Buffer A with 300 mM imidazole. Fractions containing BIR protein were pooled. Final concentrations of 5 mM DTT and 100 mM zinc acetate were added. The pool was concentrated and loaded on a Superdex 75™ (Pharmacia) sizing column. Protein eluted over one column volume into 50 mM Tris 8.0, 300 mM NaCl, 0.5 mM PMSF, 2 mM benzamidine, 5 mM DTT, 50 mM zinc acetate, 1 mM sodium azide. Fractions containing BIR protein were pooled and dialyzed against 4 changes of buffer containing 50 mM Tris (pH 8.0), 120 mM NaCl, 5 mM DTT, 0.5 mM PMSF, 2 mM benzamidine, 50 mM zinc acetate, 1 mM sodium azide. Protein was concentrated and stored at −80° C. for further characterization.
(§3) The apparent Kd values were determined from the EC50 values. […] Samples were read after a 10-minute incubation.

The target in assay [2] is T2, XIAP-BIR2 (Homo sapiens, UniProt P98170, C202A/C213G).
T2 construct: X-IAP BIR2 (amino acid residues 124-240 with mutations C202A and C213G); made in house; host or cells: Escherichia coli BL21 (DE3)
Kind of assay: fluorescence polarization competition assay, XIAP-BIR2. The class given is binding. Here is the method:
as §1, §2, §3
(In fluorescence polarisation assays a small probe gives low polarisation when free and higher when bound to something large.)

Assay [3] has as its target T3, XIAP-BIR3 (Homo sapiens, UniProt P98170).
T3 construct: X-IAP BIR3 (amino acids residues 241-356); made in house; host or cells: Escherichia coli BL21 (DE3)
Kind of assay: fluorescence polarization competition assay, XIAP-BIR3. It is filed as binding. Here is the method: as §1, §2, §3

The target in assay [4] is T4, ML-IAP-BIR (human, UniProt Q96CA5 63-179).
T4 construct: range 63-179; Expressed in E. coli from pET15b and purified on Ni-agarose; also called BIR domain of ML-IAP
T4 sequence (looked up): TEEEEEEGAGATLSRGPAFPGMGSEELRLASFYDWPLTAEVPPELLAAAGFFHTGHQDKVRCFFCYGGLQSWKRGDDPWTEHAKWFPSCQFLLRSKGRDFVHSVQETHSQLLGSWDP
Kind of assay: fluorescence polarization competition, SMAC-FAM probe.

The target of assay [5] is T5, XIAP-BIR3 (human, UniProt P98170 241-356).
T5 construct: range 241-356; Expressed in E. coli from pET15b and purified on Ni-agarose
The description is as above.

Assay [6] addresses T4, ML-IAP-BIR. Described as above. This is another data set of the same source.
The target in assay [7] is T6, XIAP-BIR2 (human, UniProt P98170 124-240).
T6 construct: range 124-240; The text says C213G, the vector name reads pET15b-XIAPBIR2C202AC218G; Expressed in E. coli from pET15b
The description is as above.

Assay [8] has as its target T4, ML-IAP-BIR. Kind of assay: fluorescence polarization competition, SMAC-FAM or Hid-FAM probe.
Description: (§4) The Kᵢ values for the mutant peptides relative to the Kᵢ of [sequence]
Assay [9] has as its target T6, XIAP-BIR2. Described as above.
Description: as §4
The target of assay [10] is T5, XIAP-BIR3. Described as above.
Description: as §4
Assay [11] has as its target T5, XIAP-BIR3. Nature of the assay: fluorescence polarization competition, SMAC-FAM probe. This is another data set of the same source.
Setting [12] is: Table 4, P4 amino acid/phenylethylamine scan, Hid-FAM probe.

T3 sequence (P98170 241-356): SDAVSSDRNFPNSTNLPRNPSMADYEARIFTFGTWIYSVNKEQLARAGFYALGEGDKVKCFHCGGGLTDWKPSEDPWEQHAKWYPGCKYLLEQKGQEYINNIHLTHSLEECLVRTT
T5 sequence (P98170 241-356 limits assumed): as the sequence (P98170 241-356) above
T2 sequence (P98170 124-240 C202A/C213G): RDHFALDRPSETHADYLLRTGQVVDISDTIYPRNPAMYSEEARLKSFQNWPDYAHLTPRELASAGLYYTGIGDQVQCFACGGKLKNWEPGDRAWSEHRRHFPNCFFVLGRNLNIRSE
T6 sequence (P98170 124-240 C202A/C213G limits assumed): as the sequence (P98170 124-240 C202A/C213G) above

As to AEAVAWKSE, the values for the Ki in assay [1], in assay [2] and in assay [3] were 9300 nM, 2.5 µM and greater than 64000 nM, respectively.
Molecule `CC(C)[C@H](NC(=O)[C@H](C)N)C(=O)N1CCC[C@H]1C(=O)NCCc1cccc(Cl)c1` [AVPX39] had a Ki in [1] (setting [12]) of 680 nM.
For the molecule `CC(C)[C@H](NC(=O)[C@H](C)N)C(=O)N1CCC[C@H]1C(=O)N[C@@H](CO)[C@@H](O)c1ccccc1` [AVPX25], the Ki in assay [1] (setting [12]) is 1500 nM.
Turning to `CC(C)[C@H](NC(=O)[C@H](C)N)C(=O)N1CCC[C@H]1C(=O)N[C@H](CO)Cc1ccccc1` [AVPX32] (H-AVP[Phe(ol)]; N-terminus assumed), the Ki in assay [1] (setting [12]) was found to be 90 nM; in assay [2] (setting [12]), 441 µM; in assay [3] (setting [12]) it was 390 nM.
`CC(C)[C@H](NC(=O)[C@H](C)N)C(=O)N1CCC[C@H]1C(=O)N[C@@H]1C[C@H]1c1ccccc1` [AVPX28a]: the Ki in assay [1] (setting [12]) came to 850 nM; in assay [3] (setting [12]), 7600 nM.
On to `CC(C)[C@H](NC(=O)[C@H](C)N)C(=O)N1CCC[C@H]1C(=O)N[C@@H](Cc1ccccc1)C(=O)O` [AVPF] (H-AVPF-OH; N-terminus assumed), for which affinity in assay [1] (setting [12]) was put at a Ki of 90 nM.
On to `CC(C)[C@H](NC(=O)[C@H](C)N)C(=O)N1CCC[C@H]1C(=O)NCCc1cccc(F)c1` [AVPX37], for which the affinity in [1] (setting [12]), expressed as Ki, was 870 nM.
The same measure, in the same setting: the same measure for `CC[C@H](C)[C@H](NC(=O)[C@@H]1CCCN1C(=O)[C@@H](NC(=O)[C@H](C)N)C(C)C)C(=O)O` [AVPI]: 330 nM.
As for ATAVIEKSE, the Ki was 4300 nM in [1], 5.7 µM in assay [2] and greater than 64000 nM in assay [3].
Regarding `CC(C)[C@H](NC(=O)[C@H](C)NC(=O)[C@H](CCC(=O)O)NC(=O)[C@H](C)N)C(=O)N1CCC[C@H]1C(=O)N[C@@H](Cc1c[nH]c2ccccc12)C(=O)N[C@@H](CCCCN)C(=O)N[C@@H](CO)C(=O)N[C@@H](CCC(=O)O)C(=O)O`, the Ki in assay [2] was 3.6 µM; in assay [3], greater than 64000 nM.
`CC(C)[C@H](NC(=O)[C@H](C)N)C(=O)NCC(=O)N[C@H](C(=O)N1CCC[C@H]1C(=O)N[C@@H](Cc1c[nH]c2ccccc12)C(=O)N[C@@H](CCCCN)C(=O)N[C@@H](CO)C(=O)N[C@@H](CCC(=O)O)C(=O)O)C(C)C` registered a Ki in assay [1] of 6000 nM.
Regarding AVPWGLKSE, the results for the inhibitory constant (Ki) in [1], in assay [2] and in assay [3] were 420 nM, 6.9 µM and 540 nM, respectively.
For the molecule `COc1ccc(Br)cc1CCNC(=O)[C@@H]1CCCN1C(=O)[C@@H](NC(=O)[C@H](C)N)C(C)C` [AVPX36], in [1] (setting [12]), affinity was put at a Ki of 1300 nM.
On the same count and under the same terms, the value for `CC(CNC(=O)[C@@H]1CCCN1C(=O)[C@@H](NC(=O)[C@H](C)N)C(C)C)c1ccccc1` (stereo partly drawn) [AVPX31] was 270 nM; that for `CC(C)[C@H](NC(=O)[C@H](C)N)C(=O)N1CCC[C@H]1C(=O)NC[C@H](O)c1ccccc1` [AVPX33] was 310 nM.
The molecule `CC(C)[C@H](NC(=O)[C@H](C)NC(=O)[C@H](CCC(N)=O)NC(=O)[C@H](C)N)C(=O)N[C@@H](C)C(=O)N[C@@H](Cc1c[nH]c2ccccc12)C(=O)N[C@@H](CCCCN)C(=O)N[C@@H](CO)C(=O)N[C@@H](CCC(=O)O)C(=O)O` came in with a Ki in [1] of 7000 nM.
In assay [1] (setting [12]), `COC[C@H](Cc1ccccc1)NC(=O)[C@@H]1CCCN1C(=O)[C@@H](NC(=O)[C@H](C)N)C(C)C` [AVPX38] registered a Ki of 150 nM.
As to AIPFEEKSE, the Ki was determined as 440 nM in assay [1], 8.7 µM in assay [2] and 590 nM in assay [3].
In turn, `CC(C)[C@H](NC(=O)[C@H](C)N)C(=O)N1CCC[C@H]1C(=O)NCC(c1ccccc1)c1ccccc1` [AVPX24] came in with a Ki in assay [1] (setting [12]) of 30 nM.
`CC[C@H](C)[C@H](NC(=O)[C@H](Cc1c[nH]c2ccccc12)NC(=O)[C@@H]1CCCN1C(=O)[C@@H](NC(=O)[C@H](C)N)C(C)C)C(=O)NCC(=O)N[C@@H](CCCCN)C(=O)N[C@@H](CO)C(=O)N[C@@H](CCC(=O)O)C(=O)O` registered a Ki in assay [1] of 330 nM.
For `CCOc1cccc(CCNC(=O)[C@@H]2CCCN2C(=O)[C@@H](NC(=O)[C@H](C)N)C(C)C)c1` [AVPX34], in assay [1] (setting [12]), the Ki stood at 780 nM.
On to `CCOc1ccccc1CCNC(=O)[C@@H]1CCCN1C(=O)[C@@H](NC(=O)[C@H](C)N)C(C)C` [AVPX40], for which, in assay [1] (setting [12]), the Ki came to 300 nM.
Same read-out and setting: the value for `CC(C)[C@H](NC(=O)[C@H](C)N)C(=O)N1CCC[C@H]1C(=O)N[C@H](CO)[C@H](O)c1ccccc1` [AVPX27] was 410 nM.
On to `CC(C)[C@H](NC(=O)[C@H](C)N)C(=O)N1CCC[C@H]1C(=O)N[C@H]1C[C@@H]1c1ccccc1` [AVPX28b], for which the figures for the Ki in assay [1] (setting [12]) and in assay [3] (setting [12]) were 1000 nM and 1400 nM, respectively.
Turning to `CC(C)[C@H](NC(=O)[C@H](C)N)C(=O)N1CCC[C@H]1C(=O)NCCc1cccc(C(F)(F)F)c1` [AVPX26], the Ki in assay [1] (setting [12]) was found to be 1900 nM.

B1: AVPWIGKSE (peptide)
peptide: AVPWIGKSE
For the molecule B1, in assay [4], the Ki was 0.33 µM.

B2: ATAVIEKSE (peptide)
peptide: ATAVIEKSE
Regarding B2, the “fold weaker than the SMAC-based peptide” value is greater than 100 fold in assay [5] and roughly 10 fold in assay [6]. In addition, the “fold specificity for ML-IAP-BIR relative to XIAP-BIR3” value in [6] was greater than 10 fold. Besides, the Ki in assay [4] was 4.3 µM; in [7], 5.7 µM.

B3: AVPX10AQKSE (peptide)
peptide: AVP[Phe(4-I)]AQKSE
Take B3: the Ki is 0.45 µM in assay [8] and 27.7 µM in [9].

B4: AVPX2AQKSE (peptide)
peptide: AVP[Phe(4-SO3H)]AQKSE
B4 came in with a Ki in assay [10] of 8.5 µM.

B5: AVPWGLKSE (peptide)
peptide: AVPWGLKSE
With B5, the results for the Ki in assay [11], in assay [4] and in assay [7] were 540 nM, 0.42 µM and 6.9 µM, respectively.

B6: AVGVPWKSE (peptide)
peptide: AVGVPWKSE
The molecule B6 came in with a Ki in assay [4] of 6 µM.

B7: AIPFEEKSE (peptide)
peptide: AIPFEEKSE
As to B7, the Ki was 590 nM in assay [11], 0.44 µM in assay [4] and 8.7 µM in assay [7].

B8: AEAVAWKSE (peptide)
peptide: AEAVAWKSE
As for B8, the “fold weaker than the SMAC-based peptide” value in assay [5] was greater than 100 fold; in assay [6], roughly 10 fold. Also, the “fold specificity for ML-IAP-BIR relative to XIAP-BIR3” value in assay [6] is greater than 10 fold. Also, the figures for the Ki in [4] and in [7] were 9.3 µM and 2.5 µM, respectively.

B9: AQAVAWKSE (peptide)
peptide: AQAVAWKSE
For the molecule B9, the Ki in [4] is 7 µM.

B10: AEAVPWKSE (peptide)
peptide: AEAVPWKSE
Turning to B10, the Ki in assay [7] was found to be 3.6 µM.

B11: AVPX7AQKSE (peptide)
peptide: AVPXAQKSE
modifications: X7 at position 4 is cyclopentylalanine
In the case of B11, the Ki is 7.9 µM in assay [8] and 229 µM in assay [9].

The term Ki denotes the dissociation constant of the complex between target and ligand, obtained from inhibition or displacement. Lower therefore signals tighter binding.
